Data taken from paper PMC7934925, “A GRM7 mutation associated with developmental delay reduces mGlu7 expression and produces neurological phenotypes” (JCI Insight, 2021).

Columns and labels:
mGlu7 (HA-mGlu7-WT) = molecular target: T1, mGlu7 (HA-mGlu7-WT) (Homo sapiens, UniProt Q14831); assay: thallium flux assay (GIRK) in HEK cells stably expressing the receptor, agonist concentration-response; type: cell-based
T1 construct: gene GRM7; full-length human mGlu7a isoform (NM_000844.4), HA-tagged, stably expressed in HEK/GIRK cells

mGlu7 (HA-mGlu7-I154T) = molecular target: T2, mGlu7 (HA-mGlu7-I154T) (Homo sapiens, UniProt Q14831, I154T); assay: as above; type: cell-based
T2 construct: gene GRM7; full-length human mGlu7a isoform, HA-tagged, I154T, stably expressed in HEK/GIRK cells
T2 sequence (Q14831 35-915 I154T): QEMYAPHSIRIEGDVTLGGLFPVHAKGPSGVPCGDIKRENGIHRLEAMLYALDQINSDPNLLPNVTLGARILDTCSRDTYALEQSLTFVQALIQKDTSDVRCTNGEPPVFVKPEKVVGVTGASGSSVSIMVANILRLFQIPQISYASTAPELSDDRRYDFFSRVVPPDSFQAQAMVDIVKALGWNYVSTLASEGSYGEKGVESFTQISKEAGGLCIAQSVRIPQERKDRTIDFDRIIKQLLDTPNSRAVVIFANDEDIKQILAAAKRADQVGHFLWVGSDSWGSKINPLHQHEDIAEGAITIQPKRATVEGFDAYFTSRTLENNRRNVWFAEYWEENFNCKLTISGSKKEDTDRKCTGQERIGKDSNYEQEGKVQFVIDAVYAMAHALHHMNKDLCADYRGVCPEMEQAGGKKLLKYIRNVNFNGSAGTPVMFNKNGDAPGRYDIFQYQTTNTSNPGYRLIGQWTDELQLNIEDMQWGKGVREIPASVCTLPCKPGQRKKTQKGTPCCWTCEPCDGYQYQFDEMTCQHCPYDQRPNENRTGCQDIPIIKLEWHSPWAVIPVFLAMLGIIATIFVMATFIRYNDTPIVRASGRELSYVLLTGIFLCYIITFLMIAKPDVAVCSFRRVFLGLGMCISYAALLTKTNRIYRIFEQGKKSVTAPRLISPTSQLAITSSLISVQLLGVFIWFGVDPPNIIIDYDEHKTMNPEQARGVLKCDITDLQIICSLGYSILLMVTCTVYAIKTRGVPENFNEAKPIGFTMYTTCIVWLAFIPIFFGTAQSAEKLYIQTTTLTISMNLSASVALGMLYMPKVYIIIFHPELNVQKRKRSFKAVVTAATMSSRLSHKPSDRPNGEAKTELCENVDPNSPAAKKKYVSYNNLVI

T1 sequence (Q14831 35-915): as the sequence (Q14831 35-915 I154T) above, with T120I counted along it

## N[C@@H](CCP(=O)(O)O)C(=O)O [L-AP4]
mGlu7 (HA-mGlu7-WT)
  EC50: 176 µM
mGlu7 (HA-mGlu7-I154T)
  EC50: 540 µM
